The source of these data is the supplement of paper PMC7108870.

The structures appear in SMILES notation.

For assay [1], the system named is HEK293sieSTAT3(wt). As to the kind of experiment: drug sensitivity score (DSS), viability CellTiter-Glo (DSS (dimensionless)); higher = more growth inhibition; extreme values may be limits of the assay. The settings on record: 72 h; STAT3 variant: wild type. The method in brief: (§1)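 HEK293 cells bearing a STAT3-dependent luciferase reporter and overexpressing wild-type or mutant STAT3 were incubated with compounds at 5 concentrations in 10-fold steps for 72 hours at 37°C and 5% CO2. CellTox Green fluorescence and then CellTiter-Glo luminescence were measured, and values were normalised to negative and positive control wells. In Breeze, a drug sensitivity score was computed from the dose-response curve area.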
On the technique in general: Cellular ATP, detected with luciferase, serves as a proxy for viable cell number.

Assay [2] relates to HEK293sieSTAT3(Y640F). The assay is described as above. The settings on record: 72 h; STAT3 variant: Y640F (constitutively active). The method in brief:
as §1

Assay [3] has as its system HEK293sieSTAT3(wt). As to the kind of experiment: drug sensitivity score (DSS), cytotoxicity CellTox Green (DSS (dimensionless)); higher = more cytotoxic; extreme values may be limits of the assay. The settings on record: 72 h; STAT3 variant: wild type. In outline: as §1
Assay [4] concerns HEK293sieSTAT3(Y640F). The assay is described as above. The settings on record: 72 h; STAT3 variant: Y640F (constitutively active). The method in brief:
as §1

Regarding `Cn1c(=O)n(-c2ccc(C(C)(C)C#N)cc2)c2c3cc(-c4cnc5ccccc5c4)ccc3ncc21` [Dactolisib] (top concentration tested 1000 nM), the drug sensitivity score is 23 in the assay with HEK293sieSTAT3(wt) [1], 19.3 with HEK293sieSTAT3(Y640F) [2], 2.88 in the assay with HEK293sieSTAT3(wt) [3] and 0 in the assay on HEK293sieSTAT3(Y640F) [4].
Consider `CO[C@@H](C(=O)N1Cc2[nH]nc(NC(=O)c3ccc(N4CCN(C)CC4)cc3)c2C1)c1ccccc1` [Danusertib] (top concentration tested 10000 nM), for which the drug sensitivity score stood at 7.14 in the assay with HEK293sieSTAT3(wt) [1], 6.46 with HEK293sieSTAT3(Y640F) [2], 11.8 in the assay with HEK293sieSTAT3(wt) [3] and 0 in the assay with HEK293sieSTAT3(Y640F) [4].
For `O=C(/C=C/c1cccnc1)NCCCCC1CCN(C(=O)c2ccccc2)CC1` [Daporinad] (top concentration tested 1000 nM) the same measures were 32.8, 32.8, 0 and 3.19.
For `CCN(CC)CCN(Cc1ccc(-c2ccc(C(F)(F)F)cc2)cc1)C(=O)Cn1c(SCc2ccc(F)cc2)nc(=O)c2c1CCC2` [Darapladib] (top concentration tested 1000 nM) the same measures were 1.03, 1.89, 0.65 and 1.32.
In the case of `Cc1nc(Nc2ncc(C(=O)Nc3c(C)cccc3Cl)s2)cc(N2CCN(CCO)CC2)n1` [Dasatinib] (top concentration tested 1000 nM), the drug sensitivity score with HEK293sieSTAT3(wt) [1] was found to be 2.74; in the assay with HEK293sieSTAT3(Y640F) [2], 6.45; in the assay on HEK293sieSTAT3(wt) [3] it was 1.81; with HEK293sieSTAT3(Y640F) [4], 0.
Consider `COc1cccc2c1C(=O)c1c(O)c3c(c(O)c1C2=O)C[C@@](O)(C(C)=O)C[C@@H]3O[C@H]1C[C@H](N)[C@H](O)[C@H](C)O1` [Daunorubicin] (top concentration tested 1000 nM), for which the drug sensitivity score with HEK293sieSTAT3(wt) [1] amounted to 24; with HEK293sieSTAT3(Y640F) [2], 21.9; with HEK293sieSTAT3(wt) [3], 0; in the assay with HEK293sieSTAT3(Y640F) [4], 0.
As for `Nc1ncn([C@H]2C[C@H](O)[C@@H](CO)O2)c(=O)n1` [Decitabine] (top concentration tested 10000 nM), the drug sensitivity score in the assay on HEK293sieSTAT3(wt) [1] was 10.4; with HEK293sieSTAT3(Y640F) [2], 7.35; in the assay with HEK293sieSTAT3(wt) [3], 3.31; in the assay on HEK293sieSTAT3(Y640F) [4], 0.02.
`CC(=O)N(O)CCCCCNC(=O)CCC(=O)N(O)CCCCCNC(=O)CCC(=O)N(O)CCCCCN` [Deferoxamine] (top concentration tested 10000 nM): the drug sensitivity score is 3.23 in the assay with HEK293sieSTAT3(wt) [1], 2.48 with HEK293sieSTAT3(Y640F) [2], 1.09 in the assay on HEK293sieSTAT3(wt) [3] and 0.01 with HEK293sieSTAT3(Y640F) [4].
On to `C[C@@H]1C[C@H]2[C@@H]3CCC4=CC(=O)C=C[C@]4(C)[C@@]3(F)[C@@H](O)C[C@]2(C)[C@@]1(O)C(=O)CO` [Dexamethasone] (top concentration tested 10000 nM), for which the drug sensitivity score in the assay with HEK293sieSTAT3(wt) [1] is 2.01; in the assay on HEK293sieSTAT3(Y640F) [2], 3; with HEK293sieSTAT3(wt) [3], 0; in the assay with HEK293sieSTAT3(Y640F) [4], 0.
As for `CCc1cnn2c(NCc3ccc[n+]([O-])c3)cc(N3CCCC[C@H]3CCO)nc12` [Dinaciclib] (top concentration tested 1000 nM), the drug sensitivity score is 28.8 in the assay on HEK293sieSTAT3(wt) [1], 27.9 in the assay with HEK293sieSTAT3(Y640F) [2], 24.6 in the assay on HEK293sieSTAT3(wt) [3] and 7.03 in the assay on HEK293sieSTAT3(Y640F) [4].
The like results for `CCN(CC)C(=S)SSC(=S)N(CC)CC` [Disulfiram] (top concentration tested 100000 nM) were, in that order, 30.2, 31.1, 30.4 and 30.9.
In the case of `CC(=O)O[C@@]12CO[C@@H]1C[C@H](O)[C@@]1(C)C(=O)[C@H](O)C3=C(C)[C@@H](OC(=O)[C@H](O)[C@@H](NC(=O)OC(C)(C)C)c4ccccc4)C[C@@](O)([C@@H](OC(=O)c4ccccc4)[C@H]21)C3(C)C` [Docetaxel] (top concentration tested 1000 nM), the drug sensitivity score in the assay on HEK293sieSTAT3(wt) [1] was 31; in the assay on HEK293sieSTAT3(Y640F) [2] it was 22.8; in the assay with HEK293sieSTAT3(wt) [3] it was 11.3; in the assay on HEK293sieSTAT3(Y640F) [4], 1.47.
For `Cc1ccc(-n2nc(C(C)(C)C)cc2NC(=O)Nc2ccc(OCCN3CCOCC3)c3ccccc23)cc1` [Doramapimod] (top concentration tested 10000 nM), the drug sensitivity score was found to be 3.87 in the assay with HEK293sieSTAT3(wt) [1], 5.05 in the assay on HEK293sieSTAT3(Y640F) [2], 0 in the assay with HEK293sieSTAT3(wt) [3] and 0.14 in the assay with HEK293sieSTAT3(Y640F) [4].
The like results for `CN1CCN(c2ccc3nc(-c4c(N)c5c(F)cccc5[nH]c4=O)[nH]c3c2)CC1` [Dovitinib] (top concentration tested 10000 nM) were, in that order, 0, 0.03, 0 and 0.
For `COc1cccc2c1C(=O)c1c(O)c3c(c(O)c1C2=O)C[C@@](O)(C(=O)CO)C[C@@H]3O[C@H]1C[C@H](N)[C@H](O)[C@H](C)O1` [Doxorubicin] (top concentration tested 1000 nM) the same measures were 19.3, 18.6, 0 and 0.
For `C[C@H](Nc1ncnc2nc[nH]c12)c1cc2cccc(Cl)c2c(=O)n1-c1ccccc1` [Duvelisib] (top concentration tested 500 nM) the same measures were 2.36, 3.95, 0 and 0.
For the compound `Cc1cc(Nc2cc(N3CCN(C)CC3)nc(/C=C/c3ccccc3)n2)n[nH]1` [ENMD-2076] (top concentration tested 10000 nM), the drug sensitivity score with HEK293sieSTAT3(wt) [1] amounted to 10.7; with HEK293sieSTAT3(Y640F) [2], 9.67; in the assay on HEK293sieSTAT3(wt) [3], 5.35; with HEK293sieSTAT3(Y640F) [4], 0.61.
Take `Cc1cc(C)c(CNC(=O)c2cc(-c3ccc(CN4CCOCC4)cc3)cc3c2cnn3C2CCCC2)c(=O)[nH]1` [EPZ-5687] (top concentration tested 10000 nM): the drug sensitivity score with HEK293sieSTAT3(wt) [1], with HEK293sieSTAT3(Y640F) [2], in the assay with HEK293sieSTAT3(wt) [3] and in the assay with HEK293sieSTAT3(Y640F) [4] was 0 throughout.
